Patent publication US9737523B2, “Anti-fibrogenic compounds, methods and uses thereof” (priority 2013, dated 2017)

How the values were obtained:
MMP-1 = MMP-1 expression in human dermal fibroblasts, Western blot; format: cell-based
Protocol: Cells were then harvested after 48 hours and western blot analysis was performed.
Cells were harvested by Trypsin/EDTA and lysed with cell lysis buffer containing 50 mM Tris-HCl (pH7.40), 150 mM NaCl, 10 mM EDTA, 5 mM EGTA, 1% TritonX-100™, 0.5% Igepal CA-630, 0.025% NaN3 and protease inhibitor cocktail (Sigma™). Cell debris was removed by centrifugation at 20,000×g for 10 minutes. The protein concentration in supernatant was determined using the MicroBCA™ method (Pierce™, Rockford, Ill.). Proteins in supernatant were mixed with protein sample loading buffer (final concentration: 60 mM Tris-HCl (pH 6.80), 2% SDS, 10% glycerol, 1.5% β-mercaptoethanol, 0.002% bromophenol blue) and size fractioned by 10% of SDS-polyacrylamide gel. After proteins were transferred onto nitrocellulose membrane by iBlot™ (Invitrogen Life Technologies™), non-specific binding were blocked with phosphate buffer saline twenty 20 (PBS-T) containing 5% skim milk for 1 hour. The membrane was then incubated with primary antibody overnight. After incubation with a secondary antibody for 1 hour, protein bands were visualized by an enhanced chemiluminescence (ECL™) detection system (Santa Cruz Biotechnology™, Santa Cruz, Calif.). The primary antibodies used in this study were: mouse monoclonal anti-human MMP-1 (R&D Systems™, Minneapolis, Minn.), mouse monoclonal anti-human MMP-3 (R&D System™), rabbit monoclonal anti-human MMP-2 (Epitomics™, Burlingame, Calif.), rabbit polyclonal anti-phospho-MEK1/2 (Ser217/221™) (Cell Signaling Technology™, Danvers, Mass.), rabbit polyclonal anti-phospho-p44/42 MAPK (Thr202/Tyr204) (Cell Signaling Technology™), monoclonal anti-β-actin (Sigma™), and mouse anti-type-1 procollagen (Developmental Studies Hybridoma Bank™, Iowa City, Iowa). The secondary antibodies were either goat anti-mouse IgG (H+L) HPR conjugate or goat anti-rabbit IgG (H+L) HPR conjugate (Bio-rad Laboratory™ (Mississauga, ON, Canada). Secondary antibodies were used at a concentration of 1:3000.

MMP-3 = MMP-3 expression in human dermal fibroblasts, Western blot; format: cell-based
Protocol: Cells were then harvested by trypsinization and western blot analysis was performed.
(§1) Cell debris was removed by centrifugation at 20,000×g for 10 minutes. The protein concentration in supernatant was determined using the MicroBCA™ method (Pierce™, Rockford, Ill.). Proteins in supernatant were mixed with protein sample loading buffer (final concentration: 60 mM Tris-HCl (pH 6.80), 2% SDS, 10% glycerol, 1.5% β-mercaptoethanol, 0.002% bromophenol blue) and size fractioned by 10% of SDS-polyacrylamide gel. After proteins were transferred onto nitrocellulose membrane by iBlot™ (Invitrogen Life Technologies™), non-specific binding were blocked with phosphate buffer saline twenty 20 (PBS-T) containing 5% skim milk for 1 hour. The membrane was then incubated with primary antibody overnight. After incubation with a secondary antibody for 1 hour, protein bands were visualized by an enhanced chemiluminescence (ECL™) detection system (Santa Cruz Biotechnology™, Santa Cruz, Calif.). […] The secondary antibodies were either goat anti-mouse IgG (H+L) HPR conjugate or goat anti-rabbit IgG (H+L) HPR conjugate (Bio-rad Laboratory™ (Mississauga, ON, Canada). Secondary antibodies were used at a concentration of 1:3000.

type 1 procollagen = assay: Type 1 procollagen expression in dermal fibroblasts, Western blot; format: cell-based, human; settings: kynurenine analogues/metabolites, FIG. 10 bottom
Protocol: as §1

fibronectin = assay: Fibronectin mRNA in human dermal fibroblasts, real-time PCR; format: cell-based; settings: various concentration
splenocytes = assay: ConA-induced splenocyte proliferation; format: cell-based; settings: for reduction in conA-induced splenocyte proliferation: 100 and 150 μg/ml
[1] = test system: MEK-ERK1/2 signaling pathway; assay: Kynurenine-stimulated MMP-1 expression in dermal fibroblasts with MEK/ERK1/2 phosphorylation inhibitors; format: cell-based, human; settings: 100 μg/ml kynurenine
Protocol: Cells were harvested by Trypsin/EDTA and lysed with cell lysis buffer containing 50 mM Tris-HCl (pH7.40), 150 mM NaCl, 10 mM EDTA, 5 mM EGTA, 1% TritonX-100™, 0.5% Igepal CA-630, 0.025% NaN3 and protease inhibitor cocktail (Sigma™). Cell debris was removed by centrifugation at 20,000×g for 10 minutes. The protein concentration in supernatant was determined using the MicroBCA™ method (Pierce™, Rockford, Ill.). Proteins in supernatant were mixed with protein sample loading buffer (final concentration: 60 mM Tris-HCl (pH 6.80), 2% SDS, 10% glycerol, 1.5% β-mercaptoethanol, 0.002% bromophenol blue) and size fractioned by 10% of SDS-polyacrylamide gel. After proteins were transferred onto nitrocellulose membrane by iBlot™ (Invitrogen Life Technologies™), non-specific binding were blocked with phosphate buffer saline twenty 20 (PBS-T) containing 5% skim milk for 1 hour. The membrane was then incubated with primary antibody overnight. After incubation with a secondary antibody for 1 hour, protein bands were visualized by an enhanced chemiluminescence (ECL™) detection system (Santa Cruz Biotechnology™, Santa Cruz, Calif.). […]

[2] = kynurenine isoforms, 50 μg/ml, 48 hours

`O=C(O)c1cc(O)c2cccc(O)c2n1` [xanthurenic acid] was tested, and the “MMP-1 induction (general statement)” value (MMP-1) was “induce”, the “MMP-3 induction (general statement)” value (MMP-3) was “induce” and the “expression of type 1 procollagen” value (type 1 procollagen) was “effective at inhibiting”.
For `N[C@@H](Cc1c[nH]c2ccccc12)C(=O)O` [tryptophan, reference compound], the “MMP-1 expression, presence of tryptophan versus tryptophan-depleted media” value (MMP-1; 25 μg/ml tryptophan, 48 hrs) was “no significant difference” and the MMP-1 expression (MMP-1; various concentration of tryptophan, 48 hours) was “failed to increase”.
`Nc1ccccc1C(=O)C[C@H](N)C(=O)O` [L-kynurenine] was tested, and the “activity on MMP-1 expression compared with the other isoforms” value (MMP-1; 50 μg/ml, 48 hours) was “more activity compared to other two isoforms”, the MMP-1 expression (MMP-1; [2]) was “increase” and the “fibronectin expression (mRNA)” value (fibronectin) was “capable of down-regulating”. The “reduction in conA-induced splenocyte proliferation” value (“reduction” below) (splenocytes; after 48 hours) was “about 2 fold” and the “reduction” value (splenocytes; after 96 hours) was ~5 fold.
With `O=C(O)c1cc(=O)c2ccccc2[nH]1` [kynurenic acid] the “MMP-1 induction (general statement)” value (MMP-1) was “induce”, the “MMP1 protein expression 48 hours after treatment removal” value (MMP-1; 100 μg/ml for 48 hours, then 48 hours after removal) was “remained higher than controls” and the “MMP1 expression versus untreated cells after treatment removal” value (MMP-1; 100 μg/ml for 48 hours, then another 24 hours after removal) was “remained significantly higher”. For the same compound, the “lasting effect on expression of MMP-1 relative to Kyn” value (MMP-1; 100 μg/ml for 48 hours, then removal) was “longer lasting effect”, the MMP1 expression (MMP-1; 100 μg/ml, at 48 hours after treatment) was “marked increase” and the “MMP-3 induction (general statement)” value (MMP-3) was “induce”. The “expression of type 1 procollagen” value (type 1 procollagen) was “effective at inhibiting”, the “effect on splenocyte proliferation compared with other metabolites” value (splenocytes) was “less effect” and the “reduction” value (splenocytes; after 96 hours) was ~5 fold.
For `COc1cccc(-c2cc(=O)c3ccccc3o2)c1N` [PD98059], the “effect on kynurenine-stimulated MMP-1 expression” value ([1]; various concentration of PD98059, dose-dependent) was “effectively prevented”.
`Nc1ccccc1C(=O)C[C@@H](N)C(=O)O` [D-kynurenine] was tested, and the MMP-1 expression (MMP-1; [2]) was “increase”, the “reduction” value (splenocytes; after 48 hours) was “about 2 fold” and the “reduction” value (splenocytes; after 96 hours) was ~5 fold.
In the case of `N#CC(=C(/N)Sc1ccccc1N)/C(C#N)=C(\N)Sc1ccccc1N` [U0126], the “effect on up-regulation of MMP-1 expression by kynurenine” value ([1]; to M and 30 μM of U0126) is reported as “significantly reduced”.
